{"source": "the supplement of paper PMC11208160"}
{"assay": "recombinant barcode read abundance after kanamycin selection (control-corrected) (log10(CPM+1)); higher = more efficient recombination; sequences stand for … in AGTGCAGAGAAAATCGGCCAGTTTTCTCTGCCTGCAGTCCGCATGCCGT…AGATTTATGCAGCGGACTGCCTTTCTCCCAAAGTGATAAACCGGACAGTATCATGGACCGGTTTTCCCGGTAATCCGTATTTGCAAGGTTGGTTTCACT; site = the 11-nt target", "method_in_brief": "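In E. coli, a pooled library matched targets to IS621 bridge RNA target-binding loops and was introduced alongside a donor plasmid. Cells went onto chloramphenicol/ampicillin/kanamycin with 0.1 mM IPTG or onto chloramphenicol/ampicillin LB agar as control, in duplicate. Recombination efficiency, from recombinant-junction barcodes as counts per million, is averaged and control-corrected. It is reported as log10(CPM+1).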"}
{"sequence": "GCAAGTCCTTGGGTTCTAACCTGTTGCGT (site GCAAGTCCTAC)", "recombinant barcode read abundance (log10)": 2.47}
{"sequence": "GCAAGTTCTTGGGTTCTAACCTGTTGCCT (site GAAAGTTCTAG)", "recombinant barcode read abundance (log10)": 0.113}
{"sequence": "GCAAGTTCTTGGGTTCTAACCTGTTGCCT (site GCAAGTTCTAG)", "recombinant barcode read abundance (log10)": 1.33}
{"sequence": "GCAAGTTCTTGGGTTCTAACCTGTTGCCT (site GGAAGTTCTAG)", "recombinant barcode read abundance (log10)": 0.172}
{"sequence": "GCAAGTTCTTGGGTTCTAACCTGTTGCCT (site GTAAGTTCTAG)", "recombinant barcode read abundance (log10)": 0.229}
{"sequence": "GCAATATCTTGGGTTCTAACCTGTTGCCT (site AAGTCTCCTCT)", "recombinant barcode read abundance (log10)": 0.0108}
{"sequence": "GCAATATCTTGGGTTCTAACCTGTTGCCT (site GCAATATCTAG)", "recombinant barcode read abundance (log10)": 1.26}
{"sequence": "GCACAACCTTGGGTTCTAACCTGTTGCCT (site GCACAACCTAG)", "recombinant barcode read abundance (log10)": 1.89}
{"sequence": "GCACAACCTTGGGTTCTAACCTGTTGCCT (site GCACCACCTAG)", "recombinant barcode read abundance (log10)": 0.0258}
{"sequence": "GCACAACCTTGGGTTCTAACCTGTTGCCT (site GCACGACCTAG)", "recombinant barcode read abundance (log10)": 0.214}
{"sequence": "GCACAACCTTGGGTTCTAACCTGTTGCCT (site GCACTACCTAG)", "recombinant barcode read abundance (log10)": 0.0085}
{"sequence": "GCACACACTTGGGTTCTAACCTGTTGCTG (site GAACACACTCG)", "recombinant barcode read abundance (log10)": 0}
{"sequence": "GCACACACTTGGGTTCTAACCTGTTGCTG (site GCACACACTCA)", "recombinant barcode read abundance (log10)": 2.5}
{"sequence": "GCACACTCTTGGGTTCTAACCTGTTGCCT (site GCACACTCTAG)", "recombinant barcode read abundance (log10)": 2.43}
{"sequence": "GCACACTCTTGGGTTCTAACCTGTTGCCT (site GCACCCTCTAG)", "recombinant barcode read abundance (log10)": 0.128}
{"sequence": "GCACACTCTTGGGTTCTAACCTGTTGCCT (site GCACGCTCTAG)", "recombinant barcode read abundance (log10)": 0}
{"sequence": "GCACACTCTTGGGTTCTAACCTGTTGCCT (site GCACTCTCTAG)", "recombinant barcode read abundance (log10)": 0.261}
{"sequence": "GCACATTCTTGGGTTCTAACCTGTTGCCT (site GCACATACTAG)", "recombinant barcode read abundance (log10)": 0.0258}
{"sequence": "GCACATTCTTGGGTTCTAACCTGTTGCCT (site GCACATTCTAG)", "recombinant barcode read abundance (log10)": 1.17}
{"sequence": "GCACCCTCTTGGGTTCTAACCTGTTGCCT (site GCACACTCTAG)", "recombinant barcode read abundance (log10)": 0.0655}
{"sequence": "GCACCCTCTTGGGTTCTAACCTGTTGCCT (site GCACCCTCTAG)", "recombinant barcode read abundance (log10)": 2.67}
{"sequence": "GCACCCTCTTGGGTTCTAACCTGTTGCCT (site GCACGCTCTAG)", "recombinant barcode read abundance (log10)": 0.0715}
{"sequence": "GCACCCTCTTGGGTTCTAACCTGTTGCCT (site GCACTCTCTAG)", "recombinant barcode read abundance (log10)": 0.0191}
{"sequence": "GCACGTGCTTGGGTTCTAACCTGTTGCCT (site GCACGTGCTAG)", "recombinant barcode read abundance (log10)": 0.624}
{"sequence": "GCACGTGCTTGGGTTCTAACCTGTTGCCT (site GCCCGTGCTAG)", "recombinant barcode read abundance (log10)": 0.141}
{"sequence": "GCACGTGCTTGGGTTCTAACCTGTTGCCT (site GCGCGTGCTAG)", "recombinant barcode read abundance (log10)": 0.0268}
{"sequence": "GCACGTGCTTGGGTTCTAACCTGTTGCCT (site GCTCGTGCTAG)", "recombinant barcode read abundance (log10)": 0.0446}
{"sequence": "GCACTAGCTTGGGTTCTAACCTGTTGCGT (site GCACTAACTAG)", "recombinant barcode read abundance (log10)": 0.17}
{"sequence": "GCACTAGCTTGGGTTCTAACCTGTTGCGT (site GCACTAGCTAC)", "recombinant barcode read abundance (log10)": 2.54}
{"sequence": "GCAGCCTCTTGGGTTCTAACCTGTTGCGT (site ATGTGAACTCA)", "recombinant barcode read abundance (log10)": 0.00651}
{"sequence": "GCAGCCTCTTGGGTTCTAACCTGTTGCGT (site GCAGCCTCTAC)", "recombinant barcode read abundance (log10)": 2.08}
{"sequence": "GCAGCTACTTGGGTTCTAACCTGTTGCTG (site ACAGCTACTAA)", "recombinant barcode read abundance (log10)": 0.0295}
{"sequence": "GCAGCTACTTGGGTTCTAACCTGTTGCTG (site GCAGCTACTCA)", "recombinant barcode read abundance (log10)": 0.694}
{"sequence": "GCATCCTCTTGGGTTCTAACCTGTTGCCA (site AGGAGTACTAA)", "recombinant barcode read abundance (log10)": 0.146}
{"sequence": "GCATCCTCTTGGGTTCTAACCTGTTGCCA (site GCATCCTCTTG)", "recombinant barcode read abundance (log10)": 0.584}
{"sequence": "GCATGTCCTTGGGTTCTAACCTGTTGCAT (site GAATGTCCTAT)", "recombinant barcode read abundance (log10)": 0.128}
{"sequence": "GCATGTCCTTGGGTTCTAACCTGTTGCAT (site GCATGTCCTAT)", "recombinant barcode read abundance (log10)": 1.37}
{"sequence": "GCCAAACCTTGGGTTCTAACCTGTTGCCT (site GCCAAACCTAG)", "recombinant barcode read abundance (log10)": 0.0479}
{"sequence": "GCCAAACCTTGGGTTCTAACCTGTTGCCT (site GCCACACCTAG)", "recombinant barcode read abundance (log10)": 0.0741}
{"sequence": "GCCAAACCTTGGGTTCTAACCTGTTGCCT (site GCCAGACCTAG)", "recombinant barcode read abundance (log10)": 0.458}
{"sequence": "GCCAAACCTTGGGTTCTAACCTGTTGCCT (site GCCATACCTAG)", "recombinant barcode read abundance (log10)": 0.184}
{"sequence": "GCCAACCCTTGGGTTCTAACCTGTTGCGT (site GCCAACCCTAA)", "recombinant barcode read abundance (log10)": 0.212}
{"sequence": "GCCAACCCTTGGGTTCTAACCTGTTGCGT (site GCCAACCCTAC)", "recombinant barcode read abundance (log10)": 0.276}
{"sequence": "GCCAACCCTTGGGTTCTAACCTGTTGCGT (site GCCAACCCTAG)", "recombinant barcode read abundance (log10)": 0.149}
{"sequence": "GCCAACCCTTGGGTTCTAACCTGTTGCGT (site GCCAACCCTAT)", "recombinant barcode read abundance (log10)": 0.162}
{"sequence": "GCCACTCCTTGGGTTCTAACCTGTTGCGT (site GCCACTCCTAC)", "recombinant barcode read abundance (log10)": 0.297}
{"sequence": "GCCACTCCTTGGGTTCTAACCTGTTGCGT (site GTCAATCCTAC)", "recombinant barcode read abundance (log10)": 0.185}
{"sequence": "GCCATTACTTGGGTTCTAACCTGTTGCCT (site GCCATAACTAG)", "recombinant barcode read abundance (log10)": 0.0468}
{"sequence": "GCCATTACTTGGGTTCTAACCTGTTGCCT (site GCCATCACTAG)", "recombinant barcode read abundance (log10)": 0.0409}
{"sequence": "GCCATTACTTGGGTTCTAACCTGTTGCCT (site GCCATGACTAG)", "recombinant barcode read abundance (log10)": 0.297}
{"sequence": "GCCATTACTTGGGTTCTAACCTGTTGCCT (site GCCATTACTAG)", "recombinant barcode read abundance (log10)": 0.0923}
{"sequence": "GCCATTCCTTGGGTTCTAACCTGTTGCAT (site AGAGCCACTTA)", "recombinant barcode read abundance (log10)": 0.0467}
{"sequence": "GCCATTCCTTGGGTTCTAACCTGTTGCAT (site GCCATTCCTAT)", "recombinant barcode read abundance (log10)": 0.347}
{"sequence": "GCCCATGCTTGGGTTCTAACCTGTTGCGG (site CATTTCACTAG)", "recombinant barcode read abundance (log10)": 0.144}
{"sequence": "GCCCATGCTTGGGTTCTAACCTGTTGCGG (site GCCCATGCTCC)", "recombinant barcode read abundance (log10)": 2.05}
{"sequence": "GCCGACCCTTGGGTTCTAACCTGTTGCCG (site GCCGACCCTCG)", "recombinant barcode read abundance (log10)": 0.492}
{"sequence": "GCCGACCCTTGGGTTCTAACCTGTTGCCG (site GCCTACCCTCC)", "recombinant barcode read abundance (log10)": 0.0507}
{"sequence": "GCCGAGACTTGGGTTCTAACCTGTTGCCT (site GCCGAAACTAG)", "recombinant barcode read abundance (log10)": 0.48}
{"sequence": "GCCGAGACTTGGGTTCTAACCTGTTGCCT (site GCCGACACTAG)", "recombinant barcode read abundance (log10)": 0.0133}
{"sequence": "GCCGAGACTTGGGTTCTAACCTGTTGCCT (site GCCGAGACTAG)", "recombinant barcode read abundance (log10)": 0.34}
{"sequence": "GCCGAGACTTGGGTTCTAACCTGTTGCCT (site GCCGATACTAG)", "recombinant barcode read abundance (log10)": 0.121}
{"sequence": "GCCGAGTCTTGGGTTCTAACCTGTTGCTT (site GCCGAGTCTAA)", "recombinant barcode read abundance (log10)": 0.688}
{"sequence": "GCCGAGTCTTGGGTTCTAACCTGTTGCTT (site GCCGAGTCTCA)", "recombinant barcode read abundance (log10)": 0.0689}
{"sequence": "GCCGAGTCTTGGGTTCTAACCTGTTGCTT (site GCCGAGTCTGA)", "recombinant barcode read abundance (log10)": 0.0417}
{"sequence": "GCCGAGTCTTGGGTTCTAACCTGTTGCTT (site GCCGAGTCTTA)", "recombinant barcode read abundance (log10)": 0.6}
{"sequence": "GCCGATACTTGGGTTCTAACCTGTTGCCA (site AGTCTGCCTCA)", "recombinant barcode read abundance (log10)": 0.134}
{"sequence": "GCCGATACTTGGGTTCTAACCTGTTGCCA (site GCCGATACTTG)", "recombinant barcode read abundance (log10)": 0}
{"sequence": "GCCGATTCTTGGGTTCTAACCTGTTGCCT (site ACCGATTCTAT)", "recombinant barcode read abundance (log10)": 0.0154}
{"sequence": "GCCGATTCTTGGGTTCTAACCTGTTGCCT (site GCCGATTCTAG)", "recombinant barcode read abundance (log10)": 0.0394}
{"sequence": "GCCGCGACTTGGGTTCTAACCTGTTGCCT (site GCAGCGACTAG)", "recombinant barcode read abundance (log10)": 0.207}
{"sequence": "GCCGCGACTTGGGTTCTAACCTGTTGCCT (site GCCGCGACTAG)", "recombinant barcode read abundance (log10)": 0.236}
{"sequence": "GCCGCGACTTGGGTTCTAACCTGTTGCCT (site GCGGCGACTAG)", "recombinant barcode read abundance (log10)": 0.204}
{"sequence": "GCCGCGACTTGGGTTCTAACCTGTTGCCT (site GCTGCGACTAG)", "recombinant barcode read abundance (log10)": 0.262}
{"sequence": "GCCTACCCTTGGGTTCTAACCTGTTGCGG (site GCCGACCCTCG)", "recombinant barcode read abundance (log10)": 0.0988}
{"sequence": "GCCTACCCTTGGGTTCTAACCTGTTGCGG (site GCCTACCCTCC)", "recombinant barcode read abundance (log10)": 0.483}
{"sequence": "GCCTATTCTTGGGTTCTAACCTGTTGCGT (site GCCTATTCTAC)", "recombinant barcode read abundance (log10)": 0.4}
{"sequence": "GCCTATTCTTGGGTTCTAACCTGTTGCGT (site TCCGATTCTAC)", "recombinant barcode read abundance (log10)": 0.0523}
